From patent publication US12076313B2 (CELISTA PHARMACEUTICALS LLC, priority 2020, dated 2024)

Assay: Rat topical application study: effectiveness at low dose and topical absorption
Format: in vivo
Settings: rats, topical, 20 μg/100 μL
Procedure: A study was performed in rats with formulations A and B, and a control formulation. Formulation A was IMQ+penetration enhancer (P.E.) at 20 μg/100 μL. […] The Control formulation was IMQ at 20 μg/100 μL in ethanol.

CC(C)Cn1cnc2c(N)nc3ccccc3c21 [Imiquimod, 1-(2-methylpropyl)-1H-imidazo[4,5-c]quinolin-4-amine]
effectiveness at a low dose: effective
